Consider three molecules from US20050049229A1, “Therapeutic applications of 2-hydroxyacetanilide” (priority 2003, published 2005).

Molecules are shown by their SMILES. Like-named read-outs stand apart in the source and are kept apart here. Marks after values point to notes of the source that are not given here. Where only a bound is given, the exact number is not on record here.

Data set [1] concerns platelet aggregation induced by collagen, arachidonic acid (AA) and adenosine diphosphate (ADP). As to conditions: Dupin et al.; cited from earlier work.
A further data set relates to PAF-induced mortality. Nature of the data set: prevention of PAF-induced mortality in rabbits. The data set is classed as in vivo, rabbit. Here is the method:
Male rabbits (New Zealand White, 3-3.5 kg) were used to test the ability of 2-hydroxyacetanilide, paracetamol and aspirin to prevent the lethality of intravenous PAF.
PAF was prepared before each injection by dissolution in saline to give a final concentration of 22 μg ml^−1. The resulting solution was injected into the marginal ear vein of the rabbits over a period of approximately 1 minute. In preliminary experiments it was established that an intravenous dose of 11 μg kg^−1 PAF was required to induce consistently fatal pulmonary thrombosis in the animals (n=6). This dose of PAF was used in subsequent experiments with 2-hydroxyacetanilide and paracetamol.
Rabbits were pretreated by intraperitoneal injection of either 2-hydroxyacetanilide (100 or 300 mg kg^−1), paracetamol (300 or 500 mg kg^−1) or aspirin (50 mg kg^−1) 2 hours before the challenging dose of PAF. Each animal was used for only one experiment.

The subject of data set [2] is carrageenan-induced rat-paw oedema. The data set can be described thus: carrageenan-induced rat paw oedema (plethysmographic method). As to conditions: for Mean paw volume ± SEM after 5 hr: 30 min before carrageenan; for Anti-inflammatory Activity Mean ± SEM: A−B/A×100 vs control, in %. The data set is classed as in vivo. Here is the method: The plethysmographic method (Winter et al., Proc. Soc. Exp. Biol. Med. III, 1962, pp. 544-547) was then used for recording the volume changes in the rat paw. […] Another two groups received paracetamol at a dose of 300 or 500 mg kg^−1, and a further two groups received aspirin at a dose of 150 or 300 mg kg^−1, while the control group received saline or distilled water. […] The difference in paw volumes before and after the carrageenan injections indicated the volume of inflammation. Anti-inflammatory activities were calculated as A−B/A×100, where A and B denote mean paw volume of control and drug-treated animals respectively.

For data set [3] the following is noted: overdose, about twenty 500 mg tablets; cited from earlier work.
The subject of data set [4] is platelet aggregation induced by AA, PAF or collagen. Nature of the data set: in vitro platelet aggregation in human platelet rich plasma. The data set is classed as cell-based. As to conditions: human PRP. Here is the method: Blood was drawn by vein puncture from healthy human volunteers reported to be free of medications for at least one week. The blood samples were mixed with 3.8% w/v sodium citrate solution (9:1) and centrifuged at 260 g for 15 minutes at 20° C. to obtain platelet rich plasma (PRP). The platelet count was determined by phase contrast microscopy and all aggregation studies were carried out at 37° C. with PRP having platelet counts between 2.5 and 3.0×10^8/ml of plasma. All experiments were performed within 2 hours of PRP preparation.
Platelet aggregation was monitored using a Dual-channel Lumi-aggregometer (Model 400 Chronolog Corporation, Chicago, USA) using 0.45 ml aliquots of PRP. The final volume was made up to 0.5 ml with the test compound dissolved either in normal saline or an appropriate solvent known to be devoid of any effect on aggregation. Aggregation was induced by arachidonic acid (AA), platelet activating factor (PAF) or collagen.
Anti-platelet aggregation effects were studied by pretreatment of PRP with 2-hydroxyacetanilide or paracetamol for 1 minute followed by the addition of the maximum dose of agonist (i.e. AA, PAF or collagen). The resulting aggregation was monitored for 5 minutes following agonist addition by the change in light transmission as a function of time.
The results were expressed as percentage inhibition after the addition of aggregation agents compared with controls. Once the anti-platelet aggregation activity of the inhibitors against these agonists was established, dose-response curves were constructed to calculate the IC50 values of the inhibitors.

The test system is the same in data set [5]. The data set can be described thus: in vivo platelet aggregation (PRP from orally dosed rabbits). More on the design: species or system rabbit. As to conditions: Oryctolagus cuniculus, 500 mg/kg oral, blood 2 hours after. Here is the method: Both 2-hydroxyacetanilide and paracetamol were tested for in vivo platelet aggregation activity at a dose of 500 mg kg^−1. The compounds were first separately dissolved in 0.5% w/v gum tragacanth and then administered orally to albino rabbits of either sex. Control groups received only the vehicle.
Blood was drawn from the marginal ear of the rabbits 2 hours after drug administration. The blood was then mixed with 3.8% w/v sodium citrate solution (9:1) and centrifuged at 260 g for 15 minutes at 20° C. to prepare platelet rich plasma (PRP). The platelet count was determined by phase contrast microscopy and all aggregation studies were carried out at 37° C. with PRP having platelet counts between 2.5 and […] /ml of plasma. The experiments were performed within 2 hours of PRP preparation.
Platelet aggregation was monitored using a Dual-Channel Lumi-aggregometer (Model 400 Chronolog Corporation, Chicago, USA) using 0.45 ml aliquots of PRP. Aggregation was induced with platelet activating factor (PAF, 0.8 μM), collagen (20 μg mL^−1) or arachidonic acid (AA, 1.7 mM).

Data set [6] relates to acetic acid induced writhing. Nature of the data set: acetic acid induced writhing test in mice. The data set is classed as in vivo, mouse. As to conditions: for No. of writhings: 30 min before 1% acetic acid IP, counted 10 minutes. Here is the method: Analgesia was assessed by the method of Koster et al. (Federation Proceedings, 1959, 18, pp. 412-416), otherwise known as the acetic acid induced writhing test. When acetic acid is injected intraperitoneally it causes abdominal contractions or writhings, a syndrome characterized by a wave of contraction of the abdominal musculature followed by extension of hind limbs. By counting the number of writhes a measure of the effective analgesia provided can be obtained.
Male Wister mice (20-25 g) were divided into six groups, with five mice per group, for use in the writhing assay. The compounds 2-hydroxyacetanilide or paracetamol were administered orally 30 minutes prior to an intraperitoneal injection of 1% acetic acid. Immediately after administering the acetic acid, the number of writhings were counted and recorded for the subsequent 10 minutes. Analgesic potency was taken as difference between a test group mean and its control.

In the case of `CC(=O)Nc1cccc(O)c1` [3-hydroxyacetanilide], in data set [1], the “in vitro inhibition of platelet aggregation” value was “comparable in vitro inhibition”.

As for `CC(=O)Oc1ccccc1C(=O)O` [Aspirin], the Survival in the data set on PAF-induced mortality (50 mg/kg IP 2 hours before PAF 11 μg/kg IV) is listed as 7/10*. Moreover, the “Mean paw volume ± SEM after 5 hr” value in data set [2] (dose 150 mg/kg) worked out at 0.58 ± 0.08 mL; in data set [2] (dose 500 mg/kg) it was 0.23 ± 0.03 mL. Moreover, the “Anti-inflammatory Activity Mean ± SEM” value in data set [2] (dose 150 mg/kg) was 28 ± 9; in data set [2] (dose 500 mg/kg), 71 ± 3.

As usually defined, the IC50 is the concentration needed to halve the response being measured. Usually inhibition stands for the relative decrease from the control value, in per cent. Turning to `CC(=O)Nc1ccc(O)cc1` [Paracetamol, 4-hydroxyacetanilide], the “dose that may cause hepatocellular necrosis” value in data set [3] is listed as at least 10 g. The IC50 worked out at 136 ± 1 µM in data set [4] (aggregation agent AA, read-out: IC50 ± SEM, platelet aggregation induced by AA); 167 ± 8 µM in data set [4] (aggregation agent PAF, read-out: IC50 ± SEM, platelet aggregation induced by PAF); 263 ± 1 µM in data set [4] (aggregation agent collagen, read-out: IC50 ± SEM, platelet aggregation induced by Collagen). Also, the inhibition at 500 mg/kg is 5 ± 3% in data set [5] (AA 1.7 mM, read-out: % inhibition of in vivo platelet aggregation induced by AA); 8 ± 2% in data set [5] (PAF 0.8 μM, read-out: % inhibition of in vivo platelet aggregation induced by PAF); 89% in data set [6] (Mus musculus, 500 mg/kg oral). Further, the Survival is 0/10 in the data set on PAF-induced mortality (300 mg/kg IP 2 hours before PAF 11 μg/kg IV) and 2/10 in the data set with PAF-induced mortality (500 mg/kg IP 2 hours before PAF 11 μg/kg IV). Further, the results for the No. of writhings in data set [6] (300 mg/kg oral) and in data set [6] (500 mg/kg oral) were 20 and 3.2, respectively. In data set [6] (Mus musculus, 300 mg/kg oral), this molecule came in with an inhibition at 300 mg/kg of 33%. Also, the figures for the “Mean paw volume ± SEM after 5 hr” value in data set [2] (dose 300 mg/kg) and in data set [2] (dose 500 mg/kg) were 0.75 ± 0.06 mL and 0.72 ± 0.07 mL, respectively. For the same molecule, the “Anti-inflammatory Activity Mean ± SEM” value in data set [2] (dose 300 mg/kg) is given as 6 ± 2; in data set [2] (dose 500 mg/kg) it was 10 ± 3.
